The record followed here is patent US11471460B2, “Autophagy modulators for use in treating cancer” (The United States of America,as represented by the …, priority 2017, dated 2022).

Molecules are shown by their SMILES. “Also recorded” adds a separate entry of the source.

Data set [1] has as its system LC3-II and p62 in U2OS cells. The data set can be described thus: Accumulation of autophagosome markers LC3-II and p62, Western immuno-blotting. The data set is classed as cell-based, human. As for the experimental part: Cells were cultured for 4 hrs before total cell extracts were subjected to Western immuno-blotting for LC3, p62 and β-actin. Blot was developed with film. […] (C) U2OS cells were cultured for the times indicated in the presence of 1.2 μM compound 1 to produce 80% of the maximum observed in FIG. 10A. Total cell extracts were assayed at the times indicated. […] All blots were stained with Ponceau S […].
Total cell lysates were prepared (in 4× dye). Proteins were fractionated at 200V in a NuPAGE 4-12% bis-tris polyacrylamide gel (NP0323, Novex) using NuPAGE MES running buffer (NP0002, Novex) and then stained with PageBlue (24260, Thermo Scientific) in order to quantify the relative amount of histones in each sample. […] Proteins were wet-transferred onto nitrocellulose membranes (162-0112, Bio-Rad) using NuPAGE transfer buffer (NP-0006-1, Novex) for 1 hour at 30V. Membranes were then stained with dilute Ponceau S solution, blocked in 5% milk for 30 minutes at room temperature, and incubated overnight at 4° C. in primary antibody. Membranes were washed with phosphate buffered saline with tween 20 (PBST) three times for 10 min. each, incubated with secondary antibodies in 5% milk for 1 hour, washed three times with PBST again, covered in ECL (SuperSignal West Pico chemiluminescent substrate, 34080, Thermo Scientific) and exposed to film (HyBlot ES, E3218, Denville Scientific).

The test system of a further data set is U2OS cells. The experiment in a line: Tandem sensor RFP-GFP-LC3B: fraction of yellow (neutral pH) puncta. The data set is classed as cell-based, human. Particulars: 1 μM, 4 hrs. The procedure:
Confocal microscopic images are shown in FIG. 12A of U2OS cells expressing a modified tandem sensor RFP-GFP-tagged LC3B protein in which the green signal from a mutated GFP was suppressed in an acidic environment, with little or no effect on the red signal from RFP. Thus, autophagosomes with neutral pH would fluoresce yellow, whereas autolysosomes with acidic pH would fluoresce red. These cells were treated with either vehicle or 1 μM compound 1 for 4 hrs. The fraction of yellow puncta, representing autophagosomes with a neutral pH, was quantified in 50 cells from each of three independent experiments (mean±SEM; Student's t-test, p<0.0001) as shown in FIG. 12B. The fraction of yellow puncta increased 4-fold in the presence of compound 1 (right side graph).
To determine whether the accumulation of autophagosomes resulted from induction of autophagy or from disruption of autophagic flux, cells were transfected with a vector expressing a modified tandem sensor RFP-GFP-tagged LC3B protein in which the green signal from a mutated GFP was suppressed in an acidic environment, with little or no effect on the red signal from RFP^41. Therefore, in merged images, only red puncta indicated acidic autolysosomes; yellow puncta indicated either autophagosomes or non-acidic autolysosomes. […]

Another data set concerns the target T1, PIKFYVE (Homo sapiens, UniProt Q9Y2I7).
T1 construct: purchased DiscoverX (KINOMEscan service, San Diego, Calif.)
The experiment in a line: DiscoverX KINOMEscan dissociation constant. The data set is classed as binding. The procedure:
(§1) Each kinase was tagged with a unique DNA sequence that allowed the amount of protein bound to the solid support to be quantified by PCR. The top three targets for compound 1 were PIKFYVE, PIP4K2C and MTOR. […] Dissociation constants (Kd) were determined from the amount of kinase captured on the solid support as a function of the test compound concentration (nM) on a log10 scale. Mean Kd values (±range) are given for each compound. The ratio of PIP4K2C to PIKFYVE indicates the relative specificity for these two kinases.
(§2) To address this hypothesis, a panel of 468 human kinases were screened for their ability to bind compound 1. […] The top two candidates were PIKFYVE (phosphoinositide kinase FYVE-type zinc finger containing) and PIP4K2C (phosphatidylinositol-5-phosphate 4-kinase). PIKFYVE is a kinase that is essential for mouse development (49) and that prevents endosome enlargement and cytoplasmic vacuolization (50, 51). PIP4K2C is a kinase that is not essential for mouse growth and viability, but it is essential for the immune system (52), mTORC1 signaling (53), and regulation of autophagy (54). The third candidate was MTOR, a kinase that regulates autophagy (55). Therefore, the binding constants (Kd) for all five members of the compound 1-family were determined for each of these three proteins from two independent titration curves, as shown for compound 1.

Another data set deals with 468 human kinases. The data set can be described thus: DiscoverX KINOMEscan profile at 10 μM. The data set is classed as binding. Particulars: panel of 468 human kinases. As for the experimental part: as §1, §2
In a further data set the test system is osteosarcoma U2OS cells. The data set can be described thus: U2OS cell viability (cellular ATP). The class given is cell-based, human. An excerpt:
These effects are dependent on the compound selected, its concentration and the length of time cells are exposed to the compound.

In data set [2] the test system is melanoma A375 cells. The experiment in a line: A375 cell proliferation (crystal violet plate assay). The data set is classed as cell-based, human.
Data set [3] concerns melanoma A375 cells. The experiment in a line: A375 cell viability (CellTiter-Glo ATP, trypan blue live cells). Particulars: 0.1 μM. The data set is classed as cell-based, human. The procedure: To reveal viability, cells were seeded into 96-well plates (1,000 cells/well), and the indicated compound was added the following day. Cells were cultured for four days before quantification of total cellular ATP. […] In separate 12-well plates, attached cells were collected by trypsinization, combined with unattached cells, and stained with trypan blue to identify dead cells. Vehicle was plotted as 0.001 μM compound in order to apply a logarithmic scale. Data were plotted as the mean±SEM for three independent experiments.
Cells were obtained from the American Type Culture Collection. BORCS5-KO HeLa cells have been described previously. Osteosarcoma U2OS were routinely seeded in 6-well plates (0.5×10^5 cells/well) and cultured in Dulbecco's Modified Eagle's medium supplemented with L-Glutamine, 4.5 g/L Glucose, Sodium Pyruvate, Phenol Red, and either heat-inactivated or normal 10% fetal calf serum at 37° C. in 5% CO2. Approximately 15-19 hours later, the indicated compound was added in 1:1000 dilutions. […] Melanoma A375, embryonic kidney 293T and human foreskin fibroblast Hs27 cells were cultured in the same medium, except that cells were seeded into 12-well plates at 10^3 cells/well.

Data set [4] relates to melanoma A375 cells. The data set can be described thus: Tumor formation by pretreated A375 cells in nude mice. The data set is classed as in vivo. An excerpt:
Viability was quantified by trypan blue dye exclusion method. The images confirmed the presence of cytoplasmic vacuolization occurred only in the compound 1 treated cells. […] The left flank received cells pretreated with vehicle and the right flank received cells pretreated with compound 1. At 27 days later, mice were photographed, and tumors excised. […] Error bars indicate the SEM for 5 tumors.
To determine whether or not compound 1 could inhibit progression of a tumor that arose from autophagy-dependent cancer cells, melanoma A375 cells were pretreated with either vehicle or compound 1 and then assayed for their ability to produce a tumor. Pretreatment consisted of culturing A375 cells for 8 hours with 10 μM compound 1. The cells were then recovered by trypsinization and their viability confirmed by trypan blue exclusion. […] The cells were then inoculated subcutaneously into the flanks of immuno-compromised mice.

T1 sequence (Q9Y2I7 whole entry): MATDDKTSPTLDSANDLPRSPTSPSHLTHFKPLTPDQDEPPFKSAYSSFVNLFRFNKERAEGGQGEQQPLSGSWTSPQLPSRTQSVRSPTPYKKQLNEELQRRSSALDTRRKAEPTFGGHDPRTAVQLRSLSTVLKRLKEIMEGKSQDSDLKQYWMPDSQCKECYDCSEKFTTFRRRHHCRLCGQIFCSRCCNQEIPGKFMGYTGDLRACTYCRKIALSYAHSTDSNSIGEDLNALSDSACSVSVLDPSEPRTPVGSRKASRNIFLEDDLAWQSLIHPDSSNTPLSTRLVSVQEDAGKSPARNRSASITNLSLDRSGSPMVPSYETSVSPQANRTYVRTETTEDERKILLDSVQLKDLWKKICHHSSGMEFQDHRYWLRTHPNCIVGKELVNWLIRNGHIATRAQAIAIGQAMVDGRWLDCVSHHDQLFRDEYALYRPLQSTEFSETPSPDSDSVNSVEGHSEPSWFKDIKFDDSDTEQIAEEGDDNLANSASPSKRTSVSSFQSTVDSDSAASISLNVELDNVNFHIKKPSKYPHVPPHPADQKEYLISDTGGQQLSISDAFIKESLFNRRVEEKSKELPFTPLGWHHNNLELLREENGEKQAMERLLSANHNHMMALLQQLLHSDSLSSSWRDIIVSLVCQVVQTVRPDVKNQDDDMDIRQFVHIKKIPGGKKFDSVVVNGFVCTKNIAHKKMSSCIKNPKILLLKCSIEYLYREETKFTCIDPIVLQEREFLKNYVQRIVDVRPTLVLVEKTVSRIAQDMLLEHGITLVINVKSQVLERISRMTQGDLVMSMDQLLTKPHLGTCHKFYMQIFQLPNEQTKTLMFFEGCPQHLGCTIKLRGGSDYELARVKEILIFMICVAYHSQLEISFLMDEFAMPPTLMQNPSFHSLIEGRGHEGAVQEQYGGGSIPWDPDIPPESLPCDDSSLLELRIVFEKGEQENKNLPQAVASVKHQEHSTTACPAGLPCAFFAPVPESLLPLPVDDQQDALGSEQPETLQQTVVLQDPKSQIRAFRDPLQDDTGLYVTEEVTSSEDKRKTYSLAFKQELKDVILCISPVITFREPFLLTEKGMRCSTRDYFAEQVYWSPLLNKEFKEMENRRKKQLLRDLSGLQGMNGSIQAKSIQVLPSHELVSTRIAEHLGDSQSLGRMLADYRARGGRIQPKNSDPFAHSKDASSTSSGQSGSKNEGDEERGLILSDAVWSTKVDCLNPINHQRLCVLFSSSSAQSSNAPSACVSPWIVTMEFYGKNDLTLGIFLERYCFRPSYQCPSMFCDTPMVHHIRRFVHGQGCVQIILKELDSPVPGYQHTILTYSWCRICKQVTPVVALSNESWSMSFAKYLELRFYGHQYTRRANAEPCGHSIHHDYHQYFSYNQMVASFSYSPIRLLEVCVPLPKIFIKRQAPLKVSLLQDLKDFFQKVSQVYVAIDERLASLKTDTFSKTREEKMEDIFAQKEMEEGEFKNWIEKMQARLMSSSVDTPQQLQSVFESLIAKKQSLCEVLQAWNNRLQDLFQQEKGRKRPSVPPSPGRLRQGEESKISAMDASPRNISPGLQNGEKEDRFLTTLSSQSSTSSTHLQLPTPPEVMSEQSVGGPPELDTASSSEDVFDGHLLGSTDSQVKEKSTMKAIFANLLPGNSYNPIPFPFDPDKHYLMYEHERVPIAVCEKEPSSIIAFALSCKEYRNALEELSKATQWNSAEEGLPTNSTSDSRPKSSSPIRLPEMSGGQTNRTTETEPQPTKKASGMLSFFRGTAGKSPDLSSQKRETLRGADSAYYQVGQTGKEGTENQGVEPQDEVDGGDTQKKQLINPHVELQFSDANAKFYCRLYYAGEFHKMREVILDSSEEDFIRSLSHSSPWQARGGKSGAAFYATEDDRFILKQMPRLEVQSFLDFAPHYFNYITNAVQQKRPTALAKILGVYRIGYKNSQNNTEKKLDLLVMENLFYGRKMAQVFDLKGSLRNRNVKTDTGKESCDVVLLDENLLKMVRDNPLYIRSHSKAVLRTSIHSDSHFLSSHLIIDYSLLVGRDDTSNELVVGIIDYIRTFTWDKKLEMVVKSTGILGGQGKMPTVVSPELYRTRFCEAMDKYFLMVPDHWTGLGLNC

As to `C1=Nc2ccccc2/C1=C/NNc1nc(Nc2ccccc2)nc(N2CCOCC2)n1` [compound 1], in data set [1], the “Delay of p62 accumulation relative to LC3-II” value is on record as “about 3 hours” and the “Sensitivity of inhibition of lysosome fission relative to accumulation of autophagosomes” value was “at least 5 fold”. Moreover, the “Concentration required for near maximum levels of LC3-II accumulation” value in data set [1] (4 hrs) lay in the range of 0.1 to 0.5 µM. Besides, in data set [1] (U2OS cells), the “Accumulation of LC3-II” value is listed as “comparable increase in LC3-II”; the “Time to accumulation of LC3-II and p62” value is at most 4 h. In the data set with U2OS cells, the “Increase in fraction of yellow puncta” value is on record as 4 fold and the “Puncta that were yellow in merged images” value is “at least 80%”. Besides, the “Standing within the family for PIKFYVE binding” value on PIKFYVE is “the most potent member”. For the same compound, the Kd (as a rule, the free concentration of one partner at which half of the binding sites on the other are occupied at equilibrium, for simple one-to-one binding) on PIKFYVE (mean of two independent titration curves) came out at 1 nM. The “Number of kinases with binding affinities of 25% or greater” value with 468 human kinases was “ten”. The “Efficacy at reducing U2OS viability relative to HCQ or CQ” value with osteosarcoma U2OS cells is given as 13 times. For the same compound, the “Inhibition of proliferation of melanoma A375 cells” value in the data set on melanoma A375 cells [2] is “inhibited A375 cell proliferation”. Also, in the data set with melanoma A375 cells [2] (plate assays), the “Efficacy at inhibiting A375 cell proliferation relative to HCQ or CQ” value is “at least 100 times”. The “Effect on Melanoma A375 cells” value with melanoma A375 cells [3] is listed as “killed”. In the data set on melanoma A375 cells [4] (A375 cells pretreated 8 hours with 10 μM, subcutaneous), the “Tumor xenograft formation by pretreated cells” value is on record as “decidedly less efficient; also recorded: inhibited their ability to form a tumor”. Besides, the “Ill effects on mice” value in the data set on melanoma A375 cells [4] (mouse weight) was “no ill effects on mice”.
